The term inhibition denotes how much of the control response was suppressed. By EC50 is commonly meant the concentration at which the effect is half-maximal.

Test [1] concerns the target Dual specificity protein kinase CLK4 (Homo sapiens) (UniProt Q9HAZ1). Conditions: Compound concentration 1000.0 nM.
The target of test [2] is Vascular endothelial growth factor receptor 3 (Homo sapiens) (UniProt P35916). The settings on record: Compound concentration 1000.0 nM.
Test [3] has as its target Alpha-2B adrenergic receptor (Homo sapiens) (UniProt P18089). Conditions: Compound concentration 10.0 uM.
For test [4], the target named is Tyrosine-protein kinase Fer (Homo sapiens) (UniProt P16591). The settings on record: Compound concentration 1000.0 nM.
The target in test [5] is Mitogen-activated protein kinase 11 (Homo sapiens) (UniProt Q15759). The settings on record: Compound concentration 1000.0 nM.
The target in test [6] is Serine/threonine-protein kinase 17B (Homo sapiens) (UniProt O94768). Conditions: Compound concentration 1000.0 nM.
Test [7] has as its target Myosin-IIIa (Homo sapiens) (UniProt Q8NEV4). The settings on record: Compound concentration 1000.0 nM.
Test [8] has as its system Mast/stem cell growth factor receptor Kit (Homo sapiens), P10721 [V559D]. Conditions: Compound concentration 1000.0 nM.
The target in test [9] is Serine/threonine-protein kinase PAK 5 (Homo sapiens) (UniProt Q9P286). The settings on record: Compound concentration 1000.0 nM.
The target in test [10] is Protein-tyrosine kinase 6 (Homo sapiens) (UniProt Q13882). Conditions: Compound concentration 1000.0 nM.
In test [11] the target is Casein kinase I isoform alpha-like (Homo sapiens) (UniProt Q8N752). The settings on record: Compound concentration 1000.0 nM.
Test [12] concerns the target RAC-gamma serine/threonine-protein kinase (Homo sapiens) (UniProt Q9Y243). Conditions: Compound concentration 1000.0 nM.
For test [13], the system named is Proto-oncogene tyrosine-protein kinase receptor Ret (Homo sapiens), P07949 [M918T]. Conditions: Compound concentration 1000.0 nM.
Test [14] concerns the target Cyclin-dependent kinase-like 3 (Homo sapiens) (UniProt Q8IVW4). Conditions: Compound concentration 1000.0 nM.
The target in test [15] is Sodium-dependent dopamine transporter (Homo sapiens) (UniProt Q01959). The settings on record: Compound concentration 10.0 uM.
The target of test [16] is Myosin light chain kinase 2, skeletal/cardiac muscle (Homo sapiens) (UniProt Q9H1R3). The settings on record: Compound concentration 1000.0 nM.
Test [17] concerns the target Cyclin-dependent kinase 8 (Homo sapiens) (UniProt P49336). Conditions: Compound concentration 1000.0 nM.
For test [18], the target named is T1, G protein-coupled receptor (Rattus norvegicus, UniProt Q9WU09). Nature of the test: cAMP increase in rat primary cultured striatal neurons.
In test [19] the target is Serine/threonine-protein kinase Nek10 (Homo sapiens) (UniProt Q6ZWH5). The settings on record: Compound concentration 1000.0 nM.
The target in test [20] is Muscarinic acetylcholine receptor M3 (Homo sapiens) (UniProt P20309). Conditions: Compound concentration 10.0 uM.
The target in test [21] is Serine/threonine-protein kinase Chk2 (Homo sapiens) (UniProt O96017). The settings on record: Compound concentration 1000.0 nM.
The target in test [22] is T1, G protein-coupled receptor. Description: CHO-based cAMP assay (rat). A general note: cAMP levels reflect the balance of adenylyl cyclase and phosphodiesterase activity.
For test [23], the target named is G-protein coupled receptor 52 (Homo sapiens, UniProt Q9Y2T5). Description: CHO-based cAMP assay (human). The class given is functional.

Calls of active or inactive are those of the source. The calls are words filed in the database; no cut-off is given here. Where only a bound is given, the exact number is not on record here.

Sequence of Myosin-IIIa (Homo sapiens) (Q8NEV4 whole entry): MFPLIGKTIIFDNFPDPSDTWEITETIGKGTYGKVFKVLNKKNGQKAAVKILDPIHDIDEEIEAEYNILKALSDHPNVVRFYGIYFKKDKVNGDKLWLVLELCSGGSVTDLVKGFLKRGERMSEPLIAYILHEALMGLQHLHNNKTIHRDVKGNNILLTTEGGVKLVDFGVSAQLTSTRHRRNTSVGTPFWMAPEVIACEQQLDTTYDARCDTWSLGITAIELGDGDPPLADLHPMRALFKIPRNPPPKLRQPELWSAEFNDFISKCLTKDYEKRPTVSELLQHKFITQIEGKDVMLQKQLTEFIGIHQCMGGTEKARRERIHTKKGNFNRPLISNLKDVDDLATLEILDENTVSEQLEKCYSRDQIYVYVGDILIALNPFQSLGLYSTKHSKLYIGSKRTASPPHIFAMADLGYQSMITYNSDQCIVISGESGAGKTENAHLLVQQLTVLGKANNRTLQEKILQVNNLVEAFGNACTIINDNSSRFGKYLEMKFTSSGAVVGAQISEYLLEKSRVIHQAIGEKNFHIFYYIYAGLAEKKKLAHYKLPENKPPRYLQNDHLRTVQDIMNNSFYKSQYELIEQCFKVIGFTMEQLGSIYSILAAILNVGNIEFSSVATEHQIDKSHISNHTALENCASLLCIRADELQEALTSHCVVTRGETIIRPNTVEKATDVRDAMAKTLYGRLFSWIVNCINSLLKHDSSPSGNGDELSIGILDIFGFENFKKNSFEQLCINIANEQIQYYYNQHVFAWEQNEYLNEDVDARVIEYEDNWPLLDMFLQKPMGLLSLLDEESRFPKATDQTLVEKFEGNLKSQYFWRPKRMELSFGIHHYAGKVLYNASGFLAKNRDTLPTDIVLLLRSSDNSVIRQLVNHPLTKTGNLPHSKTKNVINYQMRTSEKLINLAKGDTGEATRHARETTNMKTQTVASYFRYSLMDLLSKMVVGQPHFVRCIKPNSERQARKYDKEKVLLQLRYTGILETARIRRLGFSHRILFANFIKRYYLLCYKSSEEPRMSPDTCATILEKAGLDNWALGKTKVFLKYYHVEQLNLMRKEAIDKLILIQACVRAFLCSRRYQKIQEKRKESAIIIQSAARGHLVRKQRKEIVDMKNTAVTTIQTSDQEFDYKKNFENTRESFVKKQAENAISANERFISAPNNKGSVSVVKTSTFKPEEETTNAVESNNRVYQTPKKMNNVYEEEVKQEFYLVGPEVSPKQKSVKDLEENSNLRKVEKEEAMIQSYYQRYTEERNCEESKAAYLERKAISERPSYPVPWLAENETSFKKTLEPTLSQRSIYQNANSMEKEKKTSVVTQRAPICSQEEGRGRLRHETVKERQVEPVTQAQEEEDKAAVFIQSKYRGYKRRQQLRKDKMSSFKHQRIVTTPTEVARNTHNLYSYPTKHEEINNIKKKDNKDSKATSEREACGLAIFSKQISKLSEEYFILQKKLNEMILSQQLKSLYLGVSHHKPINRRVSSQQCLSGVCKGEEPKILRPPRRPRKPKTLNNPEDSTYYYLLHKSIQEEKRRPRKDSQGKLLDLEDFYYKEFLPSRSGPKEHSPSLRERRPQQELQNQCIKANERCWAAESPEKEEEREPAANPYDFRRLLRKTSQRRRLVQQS
Sequence of Myosin light chain kinase 2, skeletal/cardiac muscle (Homo sapiens) (Q9H1R3 whole entry): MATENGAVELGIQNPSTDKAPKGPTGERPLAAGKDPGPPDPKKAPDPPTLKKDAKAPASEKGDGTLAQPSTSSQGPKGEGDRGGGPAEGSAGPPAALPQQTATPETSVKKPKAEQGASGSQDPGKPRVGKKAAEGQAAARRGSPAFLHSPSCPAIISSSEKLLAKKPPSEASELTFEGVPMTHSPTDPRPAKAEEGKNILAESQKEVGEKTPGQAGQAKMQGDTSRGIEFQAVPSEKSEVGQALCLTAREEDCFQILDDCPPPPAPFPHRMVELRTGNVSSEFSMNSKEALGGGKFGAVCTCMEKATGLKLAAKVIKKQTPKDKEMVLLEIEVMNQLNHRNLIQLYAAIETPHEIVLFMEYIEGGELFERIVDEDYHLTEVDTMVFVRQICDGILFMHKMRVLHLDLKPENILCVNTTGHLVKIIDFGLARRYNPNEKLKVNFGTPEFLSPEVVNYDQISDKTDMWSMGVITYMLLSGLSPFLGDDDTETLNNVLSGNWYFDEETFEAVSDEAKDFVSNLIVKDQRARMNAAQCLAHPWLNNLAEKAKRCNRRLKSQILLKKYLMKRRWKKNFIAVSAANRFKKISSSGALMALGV
Sequence of Cyclin-dependent kinase-like 3 (Homo sapiens) (Q8IVW4 whole entry, looked up): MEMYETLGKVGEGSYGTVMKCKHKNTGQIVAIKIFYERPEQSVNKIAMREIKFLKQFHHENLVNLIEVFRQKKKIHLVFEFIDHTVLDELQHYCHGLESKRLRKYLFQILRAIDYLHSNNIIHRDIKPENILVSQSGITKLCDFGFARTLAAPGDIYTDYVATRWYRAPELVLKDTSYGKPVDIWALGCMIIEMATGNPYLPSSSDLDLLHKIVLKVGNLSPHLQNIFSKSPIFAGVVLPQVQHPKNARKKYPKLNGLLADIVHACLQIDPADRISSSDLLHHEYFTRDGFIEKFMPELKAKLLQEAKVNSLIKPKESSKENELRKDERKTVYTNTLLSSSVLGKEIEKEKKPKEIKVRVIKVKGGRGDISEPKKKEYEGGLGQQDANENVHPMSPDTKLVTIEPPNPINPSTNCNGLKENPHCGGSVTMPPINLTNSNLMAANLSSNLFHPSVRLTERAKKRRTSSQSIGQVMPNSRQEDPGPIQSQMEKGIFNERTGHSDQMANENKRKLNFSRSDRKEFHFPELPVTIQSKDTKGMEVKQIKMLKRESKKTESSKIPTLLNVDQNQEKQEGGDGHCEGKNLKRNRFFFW
Sequence of Protein-tyrosine kinase 6 (Homo sapiens) (Q13882 whole entry, looked up, canonical isoform): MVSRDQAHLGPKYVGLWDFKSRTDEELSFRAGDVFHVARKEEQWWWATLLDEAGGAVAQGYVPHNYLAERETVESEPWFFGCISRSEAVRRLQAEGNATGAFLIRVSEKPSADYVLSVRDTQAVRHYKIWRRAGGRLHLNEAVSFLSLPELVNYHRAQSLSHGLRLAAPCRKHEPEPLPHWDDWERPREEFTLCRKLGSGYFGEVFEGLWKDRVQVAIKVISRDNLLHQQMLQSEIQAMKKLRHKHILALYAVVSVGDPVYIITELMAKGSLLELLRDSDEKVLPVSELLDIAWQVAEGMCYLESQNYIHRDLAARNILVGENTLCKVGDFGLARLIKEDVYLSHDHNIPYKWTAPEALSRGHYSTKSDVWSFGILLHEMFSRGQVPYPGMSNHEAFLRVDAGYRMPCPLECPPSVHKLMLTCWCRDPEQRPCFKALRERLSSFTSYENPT
Sequence of Mitogen-activated protein kinase 11 (Homo sapiens) (Q15759 whole entry): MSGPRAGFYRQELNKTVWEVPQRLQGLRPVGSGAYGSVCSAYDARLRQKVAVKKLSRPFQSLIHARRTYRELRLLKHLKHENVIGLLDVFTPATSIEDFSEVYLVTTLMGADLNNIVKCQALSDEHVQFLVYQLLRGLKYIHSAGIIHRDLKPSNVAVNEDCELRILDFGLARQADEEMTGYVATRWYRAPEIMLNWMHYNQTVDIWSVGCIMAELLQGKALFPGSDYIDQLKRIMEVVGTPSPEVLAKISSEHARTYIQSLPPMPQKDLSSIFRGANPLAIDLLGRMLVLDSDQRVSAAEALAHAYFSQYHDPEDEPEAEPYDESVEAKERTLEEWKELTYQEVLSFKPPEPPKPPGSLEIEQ
Sequence of Alpha-2B adrenergic receptor (Homo sapiens) (P18089 whole entry): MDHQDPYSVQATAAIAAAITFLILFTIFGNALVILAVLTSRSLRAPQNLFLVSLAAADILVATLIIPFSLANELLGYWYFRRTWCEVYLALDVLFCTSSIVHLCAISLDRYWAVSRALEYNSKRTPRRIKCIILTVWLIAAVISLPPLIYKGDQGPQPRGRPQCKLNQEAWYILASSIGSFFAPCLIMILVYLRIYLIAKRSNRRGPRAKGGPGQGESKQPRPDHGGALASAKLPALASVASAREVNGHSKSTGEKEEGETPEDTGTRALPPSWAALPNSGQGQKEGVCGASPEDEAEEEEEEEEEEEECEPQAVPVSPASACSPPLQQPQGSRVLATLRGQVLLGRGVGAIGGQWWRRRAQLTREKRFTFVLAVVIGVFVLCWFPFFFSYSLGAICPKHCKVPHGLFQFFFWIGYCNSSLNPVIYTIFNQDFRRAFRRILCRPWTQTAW
Sequence of Cyclin-dependent kinase 8 (Homo sapiens) (P49336 whole entry): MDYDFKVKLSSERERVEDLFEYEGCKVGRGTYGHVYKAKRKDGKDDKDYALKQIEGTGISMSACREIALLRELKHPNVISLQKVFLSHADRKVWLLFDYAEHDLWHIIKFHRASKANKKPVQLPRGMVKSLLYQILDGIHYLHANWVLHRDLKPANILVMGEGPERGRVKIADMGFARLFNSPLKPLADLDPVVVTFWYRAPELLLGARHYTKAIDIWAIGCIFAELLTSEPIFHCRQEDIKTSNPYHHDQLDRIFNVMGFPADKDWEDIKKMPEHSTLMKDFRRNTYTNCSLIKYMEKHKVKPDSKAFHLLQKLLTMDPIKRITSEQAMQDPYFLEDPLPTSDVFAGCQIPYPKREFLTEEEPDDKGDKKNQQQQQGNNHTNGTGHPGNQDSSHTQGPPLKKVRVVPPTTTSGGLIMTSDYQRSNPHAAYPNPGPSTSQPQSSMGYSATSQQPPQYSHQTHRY
Sequence of RAC-gamma serine/threonine-protein kinase (Homo sapiens) (Q9Y243 whole entry): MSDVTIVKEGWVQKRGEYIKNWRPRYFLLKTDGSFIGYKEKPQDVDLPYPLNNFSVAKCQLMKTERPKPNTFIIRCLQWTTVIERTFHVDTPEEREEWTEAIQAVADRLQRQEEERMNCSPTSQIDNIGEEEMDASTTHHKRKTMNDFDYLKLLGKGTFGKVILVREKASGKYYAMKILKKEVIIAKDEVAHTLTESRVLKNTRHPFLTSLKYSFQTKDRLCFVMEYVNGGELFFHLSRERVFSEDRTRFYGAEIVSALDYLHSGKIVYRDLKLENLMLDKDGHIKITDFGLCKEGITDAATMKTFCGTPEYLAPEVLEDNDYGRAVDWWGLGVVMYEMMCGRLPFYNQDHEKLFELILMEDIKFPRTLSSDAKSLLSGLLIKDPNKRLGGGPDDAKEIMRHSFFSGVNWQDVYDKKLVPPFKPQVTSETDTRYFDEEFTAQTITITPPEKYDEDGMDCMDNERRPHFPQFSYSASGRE

For `Cc1cc(-n2nc(Cc3cc(F)cc(C(F)(F)F)c3)nc2C)ccc1C(N)=O` [TP-024], the residual activity in test [1] was 96%; in [2], 97%; in test [4], 79%; in test [5], 90%; in test [6] it was 81%; in test [7], 100%. The residual activity in [8] was 83%; in test [9] it was 100%; in test [10] it was 100%; in [11], 100%; in test [12] it was 100%; in [13] it was 100%. Also, the residual activity in test [14] was 83%; in test [16], 91%; in test [17], 97%; in test [19] it was 100%; in test [21], 100%. Moreover, the inhibition in test [3] was 10.1%; in [15], 7.33%; in test [20], 1.72%. In addition, the half-maximal effective concentration (EC50) in [18] was 0.151 µM (active); in test [22], 0.134 µM (active).

Turning to `Cc1nc(Cc2cccc(C(F)(F)F)c2)sc1-c1ccc(C(N)=O)nc1` [TP-024n], in test [23], the EC50 is reported as > 1 µM (not active). For the same molecule, the residual activity is 83% in test [1]; 100% in [2]; 100% in [4]; 95% in [5]; 79% in test [6]; 98% in [7]. Also, the residual activity in [8] was 100%; in test [9], 97%; in test [10], 100%; in test [11], 100%; in [12] it was 92%; in test [13], 95%. Also, the residual activity in test [14] was 100%; in test [16], 77%; in [17], 100%; in test [19], 100%; in [21], 100%. In test [3], the inhibition is 5.89%.

The values above are taken from ChEMBL document CHEMBL4507305, “Data for DCP probe TP-024” (2021).
